Data on one compound can be found in patent US12391683B2, “Therapeutic compounds and methods” (Actio Biosciences, Inc., priority 2022, dated 2025).

The EC50 is the concentration giving half of the maximal effect. By IC50 is commonly meant the midpoint of a concentration-inhibition curve.

One data set addresses T1, TRPC4 channels (Homo sapiens, UniProt Q9UBN4).
T1 construct: expressed in transfected cells; host or cells: HEK293
T1 sequence (Q9UBN4 1-977): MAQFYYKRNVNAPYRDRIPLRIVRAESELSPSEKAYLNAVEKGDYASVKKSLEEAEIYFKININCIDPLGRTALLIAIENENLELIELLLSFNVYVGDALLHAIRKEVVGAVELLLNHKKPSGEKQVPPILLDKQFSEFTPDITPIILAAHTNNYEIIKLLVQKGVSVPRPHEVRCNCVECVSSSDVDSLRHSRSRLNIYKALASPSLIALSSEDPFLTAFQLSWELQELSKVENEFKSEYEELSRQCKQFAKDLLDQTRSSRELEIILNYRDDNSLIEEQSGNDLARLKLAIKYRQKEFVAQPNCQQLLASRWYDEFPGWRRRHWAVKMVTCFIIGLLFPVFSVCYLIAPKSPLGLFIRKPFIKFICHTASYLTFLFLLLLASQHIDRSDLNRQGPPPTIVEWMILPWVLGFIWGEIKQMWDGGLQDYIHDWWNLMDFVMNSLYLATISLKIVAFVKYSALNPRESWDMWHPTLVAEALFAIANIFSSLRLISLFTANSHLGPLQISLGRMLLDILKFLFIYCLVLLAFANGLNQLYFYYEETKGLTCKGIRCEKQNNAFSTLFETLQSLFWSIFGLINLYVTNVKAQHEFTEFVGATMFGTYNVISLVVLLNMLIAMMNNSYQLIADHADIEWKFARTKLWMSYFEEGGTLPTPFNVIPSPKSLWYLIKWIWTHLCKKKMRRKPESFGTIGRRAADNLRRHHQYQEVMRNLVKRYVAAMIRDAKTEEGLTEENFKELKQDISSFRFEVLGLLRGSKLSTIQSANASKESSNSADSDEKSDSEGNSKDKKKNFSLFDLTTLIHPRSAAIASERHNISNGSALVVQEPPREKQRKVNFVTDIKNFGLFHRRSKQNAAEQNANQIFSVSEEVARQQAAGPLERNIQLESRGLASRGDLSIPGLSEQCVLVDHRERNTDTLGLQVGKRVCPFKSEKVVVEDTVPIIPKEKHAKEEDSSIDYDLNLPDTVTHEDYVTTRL
Nature of the data set: TRP Family FLIPR Assay, TRPC4. Format: cell-based. The conditions noted are these: HEK293 cells. How it is done:
(§1) The compound of Example 5 was tested for selectivity against a panel of Human TRP family ion channels in a TRP Family FLIPR Assay as described below. • 1. TRPC3 channels (human TRPC3 variant 1 gene, expressed in HEK293 cells). • 2. TRPC4 channels (human TRPC4 gene, expressed in HEK293 cells). • 3. TRPC5 channels (human TRPC5 gene, expressed in HEK293 cells). • 4. TRPC6 channels (human TRPC6 gene, expressed in HEK293 cells). • 5. TRPM2 channels (human TRPM2 gene, transiently expressed in HEK293 cells). • 6. TRPM3 channels (human TRPM3 gene, transiently expressed in HEK293 cells). • 7. TRPM4 channels (human TRPM4 gene, expressed in CHO cells). • 8. […]
(§2) Data acquisition was performed via the FLIPR Control software supplied with the FLIPR System (MDS-AT) and data was analyzed using Microsoft Excel (Microsoft Corp., Redmond, WA) or GraphPad Prism. […]
(§3) [formula] where Base is the response at low concentrations of test article, Max is the maximum response at high concentrations, xhalf the EC50, or IC50, the concentration of test article producing either half-maximal activation or inhibition, and rate is the Hill coefficient. […] No assumptions about the fit parameters was made; the fit parameters were determined by the algorithm.
(§4) The effect of each test article was evaluated at eight (8) concentrations: 0.003, 0.01, 0.03, 0.1, 0.3, 1, 3 and 10 μM, n≤4 wells/concentration). […]

For a further data set, the target named is T2, TRPV1 channels (Homo sapiens, UniProt Q8NER1).
T2 construct: expressed in transfected cells; host or cells: HEK293
T2 sequence (Q8NER1 whole entry): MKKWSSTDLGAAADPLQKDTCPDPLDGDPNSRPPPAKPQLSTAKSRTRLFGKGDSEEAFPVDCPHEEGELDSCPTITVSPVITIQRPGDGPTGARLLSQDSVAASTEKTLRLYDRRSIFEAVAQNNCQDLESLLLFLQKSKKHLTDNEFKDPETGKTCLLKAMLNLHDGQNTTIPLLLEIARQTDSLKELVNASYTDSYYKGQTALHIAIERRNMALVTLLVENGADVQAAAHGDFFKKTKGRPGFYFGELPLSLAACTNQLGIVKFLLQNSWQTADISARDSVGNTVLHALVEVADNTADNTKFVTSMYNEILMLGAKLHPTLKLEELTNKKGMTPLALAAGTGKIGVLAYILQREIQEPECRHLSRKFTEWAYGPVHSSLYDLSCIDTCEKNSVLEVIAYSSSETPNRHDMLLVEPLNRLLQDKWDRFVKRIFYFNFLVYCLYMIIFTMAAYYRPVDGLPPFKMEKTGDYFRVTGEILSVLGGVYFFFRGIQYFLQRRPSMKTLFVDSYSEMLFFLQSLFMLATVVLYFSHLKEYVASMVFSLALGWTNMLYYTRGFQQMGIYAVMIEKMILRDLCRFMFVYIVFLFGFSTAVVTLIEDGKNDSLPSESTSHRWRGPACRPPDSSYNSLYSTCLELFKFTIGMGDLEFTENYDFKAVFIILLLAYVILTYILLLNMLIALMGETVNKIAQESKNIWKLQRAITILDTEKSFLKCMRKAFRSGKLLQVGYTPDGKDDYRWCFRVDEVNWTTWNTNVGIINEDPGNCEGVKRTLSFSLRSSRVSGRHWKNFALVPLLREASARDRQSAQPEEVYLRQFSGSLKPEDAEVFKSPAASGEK
Nature of the data set: TRP Family FLIPR Assay, TRPV1. Format: cell-based. The conditions noted are these: HEK293 cells. The procedure:
as §1, §2, §3, §4

A further data set has as its system Hepatocytes. Nature of the data set: Hepatocytes predicted clearance, mouse.
Another data set addresses Human TRPV4 (Homo sapiens, UniProt Q9HBA0). Nature of the data set: TRP Family FLIPR Assay, TRPV4. In kind it is cell-based. Conditions: CHO cells. Details: expressed in transfected cells; host or cells: CHO. How it is done: as §1, §2, §3, §4

Sequence of Human TRPV4 (Q9HBA0 whole entry): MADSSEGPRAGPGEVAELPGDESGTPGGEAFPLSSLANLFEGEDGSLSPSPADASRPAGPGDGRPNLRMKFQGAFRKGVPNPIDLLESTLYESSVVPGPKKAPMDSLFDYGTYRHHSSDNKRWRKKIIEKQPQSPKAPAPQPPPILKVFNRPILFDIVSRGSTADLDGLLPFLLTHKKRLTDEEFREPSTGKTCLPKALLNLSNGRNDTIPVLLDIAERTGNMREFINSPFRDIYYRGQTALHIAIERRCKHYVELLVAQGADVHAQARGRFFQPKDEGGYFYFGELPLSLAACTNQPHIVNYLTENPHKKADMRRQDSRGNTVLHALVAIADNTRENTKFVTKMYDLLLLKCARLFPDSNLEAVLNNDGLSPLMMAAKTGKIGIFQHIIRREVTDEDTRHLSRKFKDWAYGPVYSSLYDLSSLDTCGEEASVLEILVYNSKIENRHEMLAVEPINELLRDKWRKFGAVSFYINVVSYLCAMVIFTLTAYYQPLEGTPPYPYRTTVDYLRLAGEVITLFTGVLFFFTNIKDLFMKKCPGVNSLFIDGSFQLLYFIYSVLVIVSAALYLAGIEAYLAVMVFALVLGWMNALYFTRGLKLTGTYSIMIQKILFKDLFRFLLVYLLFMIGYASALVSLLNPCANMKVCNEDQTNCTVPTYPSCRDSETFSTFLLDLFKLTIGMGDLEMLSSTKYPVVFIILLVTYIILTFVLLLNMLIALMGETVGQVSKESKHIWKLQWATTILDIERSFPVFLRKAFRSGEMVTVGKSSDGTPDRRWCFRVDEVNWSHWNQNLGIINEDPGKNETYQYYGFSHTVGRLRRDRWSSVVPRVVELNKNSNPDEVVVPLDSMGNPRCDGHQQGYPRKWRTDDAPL

As to `CC(C)(O)c1cnc(N2C[C@@]3(CC[C@@H](F)[C@](C)(Cn4cnc5ccc(C#N)cc54)C3)OC2=O)cn1` (single isomer, unassigned) [Example 5], the EC50 at TRPC4 channels (agonist mode, vs EMAX of (−)-Englerin A 30 μM, read-out: EC50 hTRPC4) was greater than 10 µM; at TRPV1 channels (agonist mode, vs EMAX of capsaicin 1 μM, read-out: EC50 hTRPV1), greater than 10 µM; on Human TRPV4 (agonist mode, vs EMAX of GSK1016790A 3 μM, read-out: EC50 hTRPV4), greater than 10 µM. The IC50 on TRPC4 channels (antagonist mode, activated with 0.5 μM (−)-Englerin A, 0.003-10 μM, read-out: IC50 hTRPC4) is greater than 1 µM; on TRPV1 channels (antagonist mode, activated with capsaicin 0.1 μM, 0.003-10 μM, read-out: IC50 hTRPV1), greater than 10 µM; at Human TRPV4 (antagonist mode, activated with GSK1016790A 0.3 μM, 0.003-10 μM, read-out: IC50 hTRPV4), 0.014 µM. Also, in the data set on Hepatocytes, the “Hepatocytes predicted clearance in mouse” value was 12.8 mL/min/kg.
